From patent US20230085307A1, “PYRIDAZINONE COMPOUND AND HERBICIDE” (NISSAN CHEMICAL CORPORATION, priority 2019, published 2023)

Assays:
late watergrass = experiment: Test Example 1: herbicidal activity, application before weed generation under submerged conditions (Table 16, symbol A); assay type: in vivo, late watergrass (Echinochloa oryzicola); settings: amount of applied herbicide 320 g/ha
Summary of the method: (§1)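 Submerged Wagner pots (alluvial soil, 4 cm water) sown with weed seeds and planted with 2.5-leaf rice seedlings; emulsifiable concentrate diluted in water applied to water surface on sowing day. Held in greenhouse at 25-30 °C; injury scored 0-5 by herbicidal rate after three weeks.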

Japanese bulrush = experiment: Test Example 1: herbicidal activity, application before weed generation under submerged conditions (Table 16, symbol B); assay type: in vivo, Japanese bulrush (Schoenoplectus juncoides); settings: amount of applied herbicide 320 g/ha
Summary of the method: as §1

oval-leafed pondweed = experiment: Test Example 1: herbicidal activity, application before weed generation under submerged conditions (Table 16, symbol C); assay type: in vivo, oval-leafed pondweed (Monochoria vaginalis); settings: amount of applied herbicide 320 g/ha
Summary of the method: as §1

barnyard grass [1] = experiment: Test Example 3: herbicidal effect by foliage application, Wagner pot (Table 18, symbol H); assay type: in vivo, barnyard grass (Echinochloa crus-galli); settings: 320 g/ha
Summary of the method: (§2)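 Plants were sown in alluvial soil held under 0.1–0.5 cm standing water and grown 14 days in a greenhouse at 25–30 °C. An emulsifiable formulation, water-diluted to the set dose, was then sprayed onto the foliage, and effects were scored three weeks later using previously defined criteria.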

Chinese sprangletop = experiment: Test Example 3: herbicidal effect by foliage application, Wagner pot (Table 18, symbol D); assay type: in vivo, chinese sprangletop (Leptochloa chinensis); settings: 320 g/ha
Summary of the method: as §2

rice flat sedge = experiment: Test Example 3: herbicidal effect by foliage application, Wagner pot (Table 18, symbol E); assay type: in vivo, rice flat sedge (Cyperus iria); settings: 320 g/ha
Summary of the method: as §2

southern crabgrass = experiment: Test Example 5: herbicidal effect by foliage application, plastic box (Table 20, symbol F); assay type: in vivo, southern crabgrass (Digitaria ciliaris); settings: foliage application after 14-day growth, evaluated three weeks after application; for Herbicidal effect by foliage application, F: southern crabgrass: amount of applied herbicide 320 g/ha
Summary of the method: (§3)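 Plants sown in sterilized diluvial soil and grown 14 days in a greenhouse at 25° C to 30° C, then sprayed on the foliage with the compound's emulsion diluted in water to a predetermined herbicide amount. Injury to weeds and crops scored three weeks after application on a visual rating scale.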

green foxtail = experiment: Test Example 5: herbicidal effect by foliage application, plastic box (Table 20, symbol G); assay type: in vivo, green foxtail (Setaria viridis); settings: foliage application after 14-day growth, evaluated three weeks after application; for Herbicidal effect by foliage application, G: green foxtail: amount of applied herbicide 320 g/ha
Summary of the method: as §3

barnyard grass [2] = experiment: Test Example 5: herbicidal effect by foliage application, plastic box (Table 20, symbol H); assay type: in vivo, barnyard grass (Echinochloa crus-galli); settings: foliage application after 14-day growth, evaluated three weeks after application; for Herbicidal effect by foliage application, H: barnyard grass: amount of applied herbicide 320 g/ha
Summary of the method: as §3

wild oat = experiment: Test Example 5: herbicidal effect by foliage application, plastic box (Table 20, symbol I); assay type: in vivo, wild oat (Avena fatua); settings: foliage application after 14-day growth, evaluated three weeks after application; for Herbicidal effect by foliage application, I: wild oat: amount of applied herbicide 320 g/ha
Summary of the method: as §3

blackgrass = experiment: Test Example 5: herbicidal effect by foliage application, plastic box (Table 20, symbol J); assay type: in vivo, blackgrass (Alopecurus myosuroides); settings: foliage application after 14-day growth, evaluated three weeks after application; for Herbicidal effect by foliage application, J: blackgrass: amount of applied herbicide 320 g/ha
Summary of the method: as §3

Italian ryegrass = experiment: Test Example 5: herbicidal effect by foliage application, plastic box (Table 20, symbol K); assay type: in vivo, Italian ryegrass (Lolium multiflorum); settings: foliage application after 14-day growth, evaluated three weeks after application; for Herbicidal effect by foliage application, K: Italian ryegrass: amount of applied herbicide 320 g/ha
Summary of the method: as §3

windgrass = experiment: Test Example 5: herbicidal effect by foliage application, plastic box (Table 20, symbol L); assay type: in vivo, windgrass (Apera spica-venti); settings: foliage application after 14-day growth, evaluated three weeks after application; for Herbicidal effect by foliage application, L: windgrass: amount of applied herbicide 320 g/ha
Summary of the method: as §3

velvetleaf = experiment: Test Example 5: herbicidal effect by foliage application, plastic box (Table 20, symbol M); assay type: in vivo, velvetleaf (Abutilon theophrasti); settings: foliage application after 14-day growth, evaluated three weeks after application; for Herbicidal effect by foliage application, M: velvetleaf: amount of applied herbicide 320 g/ha
Summary of the method: as §3

redroot pigweed = experiment: Test Example 5: herbicidal effect by foliage application, plastic box (Table 20, symbol N); assay type: in vivo, redroot pigweed (Amaranthus retroflexus); settings: foliage application after 14-day growth, evaluated three weeks after application; for Herbicidal effect by foliage application, N: redroot pigweed: amount of applied herbicide 320 g/ha
Summary of the method: as §3

lambsquarters = experiment: Test Example 5: herbicidal effect by foliage application, plastic box (Table 20, symbol O); assay type: in vivo, lambsquarters (Chenopodium album); settings: foliage application after 14-day growth, evaluated three weeks after application; for Herbicidal effect by foliage application, O: lambsquarters: amount of applied herbicide 320 g/ha
Summary of the method: as §3

chickweed = experiment: Test Example 5: herbicidal effect by foliage application, plastic box (Table 20, symbol P); assay type: in vivo, common chickweed (Stellaria media); settings: foliage application after 14-day growth, evaluated three weeks after application; for Herbicidal effect by foliage application, P: chickweed: amount of applied herbicide 320 g/ha
Summary of the method: as §3

persian speedwell = experiment: Test Example 5: herbicidal effect by foliage application, plastic box (Table 20, symbol R); assay type: in vivo, Persian speedwell (Veronica persica); settings: foliage application after 14-day growth, evaluated three weeks after application; for Herbicidal effect by foliage application, R: persian speedwell: amount of applied herbicide 320 g/ha
Summary of the method: as §3

| SMILES | Herbicidal effect, A: late watergrass (late watergrass) | Herbicidal effect, B: Japanese bulrush (Japanese bulrush) | Herbicidal effect, C: oval-leafed pondweed (oval-leafed pondweed) | herbicidal effect on barnyard grass (H) (barnyard grass [1]) | herbicidal effect on Chinese sprangletop (D) (Chinese sprangletop) | herbicidal effect on rice flat sedge (E) (rice flat sedge) | Herbicidal effect by foliage application, F: southern crabgrass (southern crabgrass) | Herbicidal effect by foliage application, G: green foxtail (green foxtail) | Herbicidal effect by foliage application, H: barnyard grass (barnyard grass [2]) | Herbicidal effect by foliage application, I: wild oat (wild oat) | Herbicidal effect by foliage application, J: blackgrass (blackgrass) | Herbicidal effect by foliage application, K: Italian ryegrass (Italian ryegrass) | Herbicidal effect by foliage application, L: windgrass (windgrass) | Herbicidal effect by foliage application, M: velvetleaf (velvetleaf) | Herbicidal effect by foliage application, N: redroot pigweed (redroot pigweed) | Herbicidal effect by foliage application, O: lambsquarters (lambsquarters) | Herbicidal effect by foliage application, P: chickweed (chickweed) | Herbicidal effect by foliage application, R: persian speedwell (persian speedwell) | other results |
| --- | --- | --- | --- | --- | --- | --- | --- | --- | --- | --- | --- | --- | --- | --- | --- | --- | --- | --- | --- |
| CCCC(=O)Oc1c(C)nn(C)c(=O)c1-c1c(-c2cccc(OC)c2)sc2c(Cl)cccc12 [4-065] | 4 (Herbicidal rate of 70% or more and less than 90%) | 0 (Herbicidal rate of 5% or less (almost no effect)) | 1 (Herbicidal rate of 5% or more and less than 20%) | 4 (Herbicidal rate of 70% or more and less than 90%) | 3 (Herbicidal rate of 40% or more and less than 70%) | 3 (Herbicidal rate of 40% or more and less than 70%) |  |  |  |  |  |  |  |  |  |  |  |  | herbicidal effect on F: southern crabgrass (evaluation grade 0-5) (southern crabgrass; 320 g/ha): 0 (Herbicidal rate of 5% or less (almost no effect)); herbicidal effect on G: green foxtail (evaluation grade 0-5) (green foxtail; 320 g/ha): 0 (Herbicidal rate of 5% or less (almost no effect)); herbicidal effect on H: barnyard grass (evaluation grade 0-5) (barnyard grass [2]; 320 g/ha): 0 (Herbicidal rate of 5% or less (almost no effect)); herbicidal effect on I: wild oat (evaluation grade 0-5) (wild oat; 320 g/ha): 0 (Herbicidal rate of 5% or less (almost no effect)); herbicidal effect on J: blackgrass (evaluation grade 0-5) (blackgrass; 320 g/ha): 0 (Herbicidal rate of 5% or less (almost no effect)); herbicidal effect on K: Italian ryegrass (evaluation grade 0-5) (Italian ryegrass; 320 g/ha): 0 (Herbicidal rate of 5% or less (almost no effect)); herbicidal effect on L: windgrass (evaluation grade 0-5) (windgrass; 320 g/ha): 0 (Herbicidal rate of 5% or less (almost no effect)); herbicidal effect on M: velvetleaf (evaluation grade 0-5) (velvetleaf; 320 g/ha): 1 (Herbicidal rate of 5% or more and less than 20%); herbicidal effect on N: redroot pigweed (evaluation grade 0-5) (redroot pigweed; 320 g/ha): 5 (Herbicidal rate of 90% or more (almost completely withered)); herbicidal effect on O: lambsquarters (evaluation grade 0-5) (lambsquarters; 320 g/ha): 2 (Herbicidal rate of 20% or more and less than 40%); herbicidal effect on P: chickweed (evaluation grade 0-5) (chickweed; 320 g/ha): 3 (Herbicidal rate of 40% or more and less than 70%); herbicidal effect on R: persian speedwell (evaluation grade 0-5) (persian speedwell; 320 g/ha): 3 (Herbicidal rate of 40% or more and less than 70%) |
| Cc1nn(C)c(=O)c(-c2c(-c3ccccc3C(F)(F)F)sc3c(Cl)cccc23)c1O [4-070] | 3 (Herbicidal rate of 40% or more and less than 70%) | 2 (Herbicidal rate of 20% or more and less than 40%) | 1 (Herbicidal rate of 5% or more and less than 20%) | 5 (Herbicidal rate of 90% or more (almost completely withered)) | 4 (Herbicidal rate of 70% or more and less than 90%) | 4 (Herbicidal rate of 70% or more and less than 90%) | 0 (Herbicidal rate of 5% or less (almost no effect)) | 0 (Herbicidal rate of 5% or less (almost no effect)) | 0 (Herbicidal rate of 5% or less (almost no effect)) | 0 (Herbicidal rate of 5% or less (almost no effect)) | 0 (Herbicidal rate of 5% or less (almost no effect)) | 3 (Herbicidal rate of 40% or more and less than 70%) | 0 (Herbicidal rate of 5% or less (almost no effect)) | 0 (Herbicidal rate of 5% or less (almost no effect)) | 3 (Herbicidal rate of 40% or more and less than 70%) | 3 (Herbicidal rate of 40% or more and less than 70%) | 5 (Herbicidal rate of 90% or more (almost completely withered)) | 5 (Herbicidal rate of 90% or more (almost completely withered)) |  |
| COc1ccccc1-c1sc2cc(Cl)c(Cl)cc2c1-c1c(O)c(C)nn(C)c1=O [5-041] | 0 (Herbicidal rate of 5% or less (almost no effect)) | 5 (Herbicidal rate of 90% or more (almost completely withered)) | 5 (Herbicidal rate of 90% or more (almost completely withered)) | 4 (Herbicidal rate of 70% or more and less than 90%) | 3 (Herbicidal rate of 40% or more and less than 70%) | 3 (Herbicidal rate of 40% or more and less than 70%) | 3 (Herbicidal rate of 40% or more and less than 70%) | 4 (Herbicidal rate of 70% or more and less than 90%) | 3 (Herbicidal rate of 40% or more and less than 70%) | 0 (Herbicidal rate of 5% or less (almost no effect)) | 0 (Herbicidal rate of 5% or less (almost no effect)) | 0 (Herbicidal rate of 5% or less (almost no effect)) | 0 (Herbicidal rate of 5% or less (almost no effect)) | 4 (Herbicidal rate of 70% or more and less than 90%) | 5 (Herbicidal rate of 90% or more (almost completely withered)) | 3 (Herbicidal rate of 40% or more and less than 70%) | 5 (Herbicidal rate of 90% or more (almost completely withered)) | 3 (Herbicidal rate of 40% or more and less than 70%) |  |
| CCOc1ccccc1-c1sc2cc(Cl)c(Cl)cc2c1-c1c(O)c(C)nn(C)c1=O [5-045] | 0 (Herbicidal rate of 5% or less (almost no effect)) | 3 (Herbicidal rate of 40% or more and less than 70%) | 0 (Herbicidal rate of 5% or less (almost no effect)) | 4 (Herbicidal rate of 70% or more and less than 90%) | 3 (Herbicidal rate of 40% or more and less than 70%) | 3 (Herbicidal rate of 40% or more and less than 70%) | 2 (Herbicidal rate of 20% or more and less than 40%) | 3 (Herbicidal rate of 40% or more and less than 70%) | 3 (Herbicidal rate of 40% or more and less than 70%) | 0 (Herbicidal rate of 5% or less (almost no effect)) | 0 (Herbicidal rate of 5% or less (almost no effect)) | 0 (Herbicidal rate of 5% or less (almost no effect)) | 0 (Herbicidal rate of 5% or less (almost no effect)) | 4 (Herbicidal rate of 70% or more and less than 90%) | 3 (Herbicidal rate of 40% or more and less than 70%) | 1 (Herbicidal rate of 5% or more and less than 20%) | 5 (Herbicidal rate of 90% or more (almost completely withered)) | 5 (Herbicidal rate of 90% or more (almost completely withered)) |  |
